Experimental data from patent publication US20220257597A1, “Methods of Administering Elagolix” (AbbVie Inc., priority 2021, published 2022).

How the values were obtained:
[1] = Drug-drug interaction study: effect of multiple doses of elagolix sodium on pharmacokinetics of omeprazole (CYP2C19 substrate) and its metabolites; settings: for M:P AUCinf Ratio, Relative Bioavailability Point Estimate / M:P AUCt Ratio, Relative Bioavailability Point Estimate: Day 11 vs. Day 1; for AUCinf / AUCt / Cmax: geometric mean; for t1/2: harmonic mean; for RAUCinf = metabolite-to-omeprazole AUCinf ratio / RAUCt = metabolite-to-omeprazole AUCt ratio / Tmax: median; for M:P AUCinf Ratio, Central Value Reference / M:P AUCt Ratio, Central Value Reference: Study Day 1: omeprazole 40 mg; for M:P AUCinf Ratio, Central Value Test / M:P AUCt Ratio, Central Value Test: Study Day 11: elagolix 300 mg BID + omeprazole 40 mg
Procedure: Subjects: Twenty adult premenopausal female subjects were enrolled in the study.
Beginning on Day 3, subjects received elagolix 300 mg BID under fasting conditions every day until Day 10. […] Doses of elagolix were separated by approximately 12 hours.
Testing was performed for CYP2C19 variants including the *2 (r54244285), *3 (r54986893), *4 (r528399504), *8 (r541291556), *10 (r56413438) and *12 (r555640102) alleles.
Safety was evaluated during confinement and at each study visit through adverse event monitoring, vital signs measurements, physical examinations, and routine laboratory tests.

[2] = Drug-drug interaction study: effect of multiple doses of elagolix sodium on pharmacokinetics of bupropion (CYP2B6 substrate) and OH-bupropion
Procedure: Subjects: Twenty four (24) adult premenopausal women in generally good health participated in this study.
Elagolix 300 mg BID (as 300 mg immediate release tablets) was administered in the morning and evening on days 1 through 14 in period 2. […] No food was consumed for 2 hours prior to the evening doses of elagolix continuing through 2 hours after. The doses of elagolix were separated by approximately 12 hours.
Individual PK parameters (peak concentration [Cmax] and area under the concentration-time curve [AUC]) were estimated using noncompartmental methods.
Central value ratios (90% confidence intervals) for Cmax, AUC, and metabolite to parent ratios (MPRs) (day 11, period 2 vs. day 1, period 1) were calculated to assess the DDIs. Safety was evaluated through assessment of adverse events, vital signs, electrocardiogram, and clinical laboratory tests.
Adverse events (AEs) were monitored throughout the DDI study. Additional safety evaluations included monitoring of physical examinations, vital signs, electrocardiogram variables, and clinical laboratory values were assessed

[3] = Drug interaction studies: change in pharmacokinetics of co-administered drug in the presence of elagolix; type: in vivo, human; settings: for Ratio (90% CI) AUC, co-administration with elagolix vs medication alone / Ratio (90% CI) Cmax, co-administration with elagolix vs medication alone: ethinyl estradiol 35 mcg and triphasic norgestimate 0.18/0.215/0.25 mg once daily, elagolix 150 mg once daily, N 21
Procedure: Drug interaction studies were performed with elagolix and other drugs likely to be co-administered and with drugs commonly used as probes for pharmacokinetic interactions. Tables 8 and 9 summarize the pharmacokinetic effects when elagolix was co-administered with these drugs.

[4] = Study Day 11, omeprazole 40 mg + elagolix 300 mg BID
[5] = co-administration with elagolix
[6] = single 40 mg omeprazole, elagolix 300 mg twice daily

SMILES	M:P AUCinf Ratio, Relative Bioavailability Point Estimate [1]	M:P AUCt Ratio, Relative Bioavailability Point Estimate [1]	AUCinf ([1]; Study Day 1, omeprazole 40 mg)	AUCt ([1]; Study Day 1, omeprazole 40 mg)	Cmax ([1]; Study Day 1, omeprazole 40 mg)	t1/2 ([1]; Study Day 1, omeprazole 40 mg)	RAUCinf = metabolite-to-omeprazole AUCinf ratio ([1]; Study Day 1, omeprazole 40 mg)	RAUCt = metabolite-to-omeprazole AUCt ratio ([1]; Study Day 1, omeprazole 40 mg)	Tmax ([1]; Study Day 1, omeprazole 40 mg)	M:P AUCinf Ratio, Central Value Reference [1]	M:P AUCt Ratio, Central Value Reference [1]	AUCinf [1, 4]	AUCt [1, 4]	Cmax [1, 4]	RAUCinf = metabolite-to-omeprazole AUCinf ratio [1, 4]	RAUCt = metabolite-to-omeprazole AUCt ratio [1, 4]	Tmax [1, 4]	M:P AUCinf Ratio, Central Value Test [1]	M:P AUCt Ratio, Central Value Test [1]	Ratio (90% CI) AUC, co-administration with elagolix vs medication alone [3]	also measured
CC(NC(C)(C)C)C(=O)c1cccc(Cl)c1.Cl (racemic) [bupropion, (±)-1-(3-chlorophenyl)-2-[(1,1-dimethylethyl)amino]-1-propanone hydrochloride, reference compound]																					Cmax upon co-administration with elagolix, in words [2, 5]: increased; increase in Cmax upon co-administration with elagolix ([2]; elagolix 300 mg BID): 25%; AUC(0-inf) ([2]; female, human, in vivo, 150 mg): 1130 ng·h/mL; AUC(0-t) ([2]; female, human, in vivo, 150 mg): 1090 ng·h/mL; Cmax ([2]; female, human, in vivo, 150 mg): 89.5 ng/mL; Tmax ([2]; female, human, in vivo, 150 mg): 4 h; changes in exposures when co-administered with elagolix, in words ([3]; elagolix 300 mg twice daily): No clinically significant changes
COc1ccc2nc([S+]([O-])Cc3ncc(CO)c(OC)c3C)[nH]c2c1 (stereo not shown) [5-hydroxyomeprazole]	0.432	0.412	883 ng·h/mL	857 ng·h/mL	195 ng/mL	1.88 h	0.61	0.65	2.0 h	0.458	0.471	664 ng·h/mL	643 ng·h/mL	134 ng/mL	0.20	0.20	3.0 h	0.198	0.194		t1/2 [1, 4]: 1.97 h; decrease in AUCinf in all genotype subgroups ([1]; all CYP2C19 genotype subgroups, elagolix co-administration): 20-30%; decrease in AUCinf ([1]; elagolix 300 mg BID dosing): ~25%; decrease in Cmax ([1]; elagolix 300 mg BID dosing): approximately 30%; decrease in M:P AUCinf ratio ([1]; elagolix 300 mg BID dosing): 60%

Further lines, with some results ahead:

M:P AUCinf Ratio, Relative Bioavailability Point Estimate [1]	M:P AUCt Ratio, Relative Bioavailability Point Estimate [1]	AUCinf ([1]; Study Day 1, omeprazole 40 mg)	AUCt ([1]; Study Day 1, omeprazole 40 mg)	Cmax ([1]; Study Day 1, omeprazole 40 mg)	t1/2 ([1]; Study Day 1, omeprazole 40 mg)	RAUCinf = metabolite-to-omeprazole AUCinf ratio ([1]; Study Day 1, omeprazole 40 mg)	RAUCt = metabolite-to-omeprazole AUCt ratio ([1]; Study Day 1, omeprazole 40 mg)	Tmax ([1]; Study Day 1, omeprazole 40 mg)	M:P AUCinf Ratio, Central Value Reference [1]	M:P AUCt Ratio, Central Value Reference [1]	AUCinf [1, 4]	AUCt [1, 4]	Cmax [1, 4]	RAUCinf = metabolite-to-omeprazole AUCinf ratio [1, 4]	RAUCt = metabolite-to-omeprazole AUCt ratio [1, 4]	Tmax [1, 4]	M:P AUCinf Ratio, Central Value Test [1]	M:P AUCt Ratio, Central Value Test [1]	Ratio (90% CI) AUC, co-administration with elagolix vs medication alone [3]	SMILES	also measured
1.246	1.497	1400 ng·h/mL	1240 ng·h/mL	152 ng/mL	3.27 h	0.85	0.76	3.5 h	0.825	0.679	3450 ng·h/mL	3380 ng·h/mL	411 ng/mL	0.99	0.97	4.0 h	1.028	1.017		COc1ccc2nc(S(=O)(=O)Cc3ncc(C)c(OC)c3C)[nH]c2c1 [omeprazole sulfone]	Cmax and AUCinf values upon co-administration with elagolix, in words [1, 5]: increased; increase in AUCinf ([1]; elagolix 300 mg BID dosing): 2.5 fold; increase in Cmax ([1]; elagolix 300 mg BID dosing): 2.7 fold; increase in M:P AUCinf ratio ([1]; elagolix 300 mg BID dosing): 25%; increase in exposures (AUCinf) in CYP2C19 EM and IM subjects ([1]; extensive and intermediate metabolizers, elagolix co-administration): ~3 fold; AUCinf ratio, co-administered with elagolix vs omeprazole alone [1, 6]: about 2.55; Cmax ratio, co-administered with elagolix vs omeprazole alone [1, 6]: about 2.70
																			0.85	C#C[C@]1(O)CC[C@H]2[C@@H]3CCC4=CC(=NO)CC[C@@H]4[C@H]3CC[C@@]21CC (mixture of isomers) [Norelgestromin]	Ratio (90% CI) Cmax, co-administration with elagolix vs medication alone [3]: 0.87
																			0.92	C#CC1(O)CC[C@H]2[C@@H]3CCC4=CC(=O)CC[C@@H]4[C@H]3CC[C@@]21CC (stereo partly shown) [Norgestrel]	Ratio (90% CI) Cmax, co-administration with elagolix vs medication alone [3]: 0.89
